The cell lines below were run with CC1(C)CNc2cc(NC(=O)c3cccnc3NCc3ccncc3)ccc21 [Motesanib] + C[C@@H](Oc1cc(-c2cnn(C3CCNCC3)c2)cnc1N)c1c(Cl)ccc(F)c1Cl [Crizotinib] (partner 1 µM) (assay: relative viability (nuclei count vs DMSO), 5 days (fraction); higher = more cells survive). Conditions: first compound 1 µM.
Outline: (§1)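 A single step with final 0.05% Triton X-100, 1% formaldehyde and 1 ug/ml Hoechst fixed the cells and stained nuclei 5 days after treatment. Lung cancer cell lines in 1536-well plates had been treated by pin tool the day after seeding with one drug alone or a fixed anchor-drug dose plus five library-drug doses (not always all listed) in √10 steps, and nuclei were counted on 4× images. Relative viability is the ratio of nuclei in treated wells to nuclei in vehicle wells, taken as the median of duplicate plates.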

Cell Line	relative viability
NCI-H2023	0.711
HCC-15	0.838
PC-14	0.969
EKVX	0.898
LC-2-ad	0.484
NCI-H1563	0.914
NCI-H1944	1.17
NCI-H1975	0.983
RERF-LC-KJ	0.879
ABC-1	1.32
NCI-H358	0.596
NCI-H650	0.522
PC-3 [JPC-3]	1.01

The cell lines below were run with CC1(C)CNc2cc(NC(=O)c3cccnc3NCc3ccncc3)ccc21 [Motesanib] + CS(=O)(=O)CCNCc1ccc(-c2ccc3ncnc(Nc4ccc(OCc5cccc(F)c5)c(Cl)c4)c3c2)o1 [Lapatinib] (partner 2 µM) in the same assay as above. Conditions: first compound 0.01 µM.
Outline: as §1

Cell Line	relative viability
NCI-H647	0.995
NCI-H1651	0.704
EPLC-272H	1
NCI-H2228	0.902
NCI-H1792	0.881
NCI-H1355	1.07
NCI-H3122	0.991
NCI-H1437	0.719
NCI-H1755	1.02
NCI-H2023	0.939
HCC-15	0.849
PC-14	0.318
EKVX	0.201
LC-2-ad	0.947
NCI-H1563	0.9
NCI-H1944	0.944
NCI-H1975	0.873
RERF-LC-KJ	0.895
ABC-1	1.12
NCI-H358	0.489
NCI-H650	0.815
PC-3 [JPC-3]	0.465

Same assay, conditions: first compound 0.03162 µM

Cell Line	relative viability
NCI-H647	1
NCI-H1651	0.706
EPLC-272H	0.943
NCI-H2228	1.13
NCI-H1792	0.854
NCI-H1355	1.01
NCI-H3122	1.03
NCI-H1437	0.78
NCI-H1755	1.05
NCI-H2023	0.778
HCC-15	0.874
PC-14	0.264
EKVX	0.21
LC-2-ad	0.921
NCI-H1563	0.991
NCI-H1944	0.831
NCI-H1975	0.815
RERF-LC-KJ	0.876
ABC-1	0.945
NCI-H358	0.472
NCI-H650	0.932
PC-3 [JPC-3]	0.459

Same assay, conditions: first compound 0.1 µM

Cell Line	relative viability
NCI-H647	1.11
CAL-12T	0.67
NCI-H1651	0.699
EPLC-272H	0.847
NCI-H2228	0.848
NCI-H1792	0.843
NCI-H1355	1.04
NCI-H3122	0.965
NCI-H1437	0.756
NCI-H1755	1.08
NCI-H2023	0.54
HCC-15	0.723
PC-14	0.336
EKVX	0.225
LC-2-ad	0.999
NCI-H1563	1.08
NCI-H1944	0.842
NCI-H1975	0.89
RERF-LC-KJ	0.958
ABC-1	1.01
NCI-H358	0.424
NCI-H650	0.897
PC-3 [JPC-3]	0.451

Same assay, conditions: first compound 0.3162 µM

Cell Line	relative viability
NCI-H647	1.19
CAL-12T	0.649
NCI-H1651	0.921
EPLC-272H	0.925
NCI-H2228	1.24
NCI-H1792	0.926
NCI-H1355	1.09
NCI-H3122	1.03
NCI-H1437	0.9
NCI-H1755	1.28
NCI-H2023	0.988
HCC-15	0.947
PC-14	0.334
EKVX	0.204
LC-2-ad	1.1
NCI-H1563	0.923
NCI-H1944	0.836
NCI-H1975	0.907
RERF-LC-KJ	0.827
ABC-1	1.27
NCI-H358	0.555
NCI-H650	1.13
PC-3 [JPC-3]	0.42

Same assay, conditions: first compound 1 µM

Cell Line	relative viability
NCI-H647	1.09
CAL-12T	0.65
NCI-H1651	0.786
EPLC-272H	0.898
NCI-H2228	1.08
NCI-H1792	0.945
NCI-H1355	0.962
NCI-H3122	1.02
NCI-H1437	0.781
NCI-H1755	0.997
NCI-H2023	0.897
HCC-15	0.886
PC-14	0.339
EKVX	0.246
LC-2-ad	0.843
NCI-H1563	0.951
NCI-H1944	0.859
NCI-H1975	0.993
RERF-LC-KJ	0.853
ABC-1	1.17
NCI-H358	0.463
NCI-H650	0.888
PC-3 [JPC-3]	0.465

What follows are cell lines tested with C[C@@]1(C(=O)Nc2ccc(F)nc2)CCCN1c1nc(Nc2cc(C3CC3)n[nH]2)c2cccn2n1 + COc1cccc2cc(-c3nc([C@H]4CC[C@H](C(=O)O)CC4)n4ncnc(N)c34)[nH]c12 [OSI-027] (partner 0.5 µM) in the same assay as above. Conditions: first compound 0.04 µM.
Outline: as §1

Cell Line	relative viability
NCI-H647	0.574
CAL-12T	0.486
NCI-H1651	0.658
EPLC-272H	0.301
NCI-H2228	0.495
NCI-H1792	0.303
NCI-H1355	0.272
NCI-H3122	0.499
NCI-H1437	0.703
NCI-H1755	0.695
NCI-H2023	0.3
HCC-15	0.417
PC-14	0.869
EKVX	0.574
LC-2-ad	0.601
NCI-H1563	0.721
NCI-H1944	0.306
NCI-H1975	0.663
RERF-LC-KJ	0.51
ABC-1	0.382
NCI-H358	0.415
NCI-H650	0.459
PC-3 [JPC-3]	0.688

Same assay, conditions: first compound 0.1265 µM

Cell Line	relative viability
NCI-H647	0.404
CAL-12T	0.382
NCI-H1651	0.525
NCI-H2228	0.187
NCI-H1792	0.828
NCI-H1355	0.236
NCI-H3122	0.86
NCI-H1437	0.272
NCI-H1755	0.355
NCI-H2023	0.088
HCC-15	0.189
PC-14	0.284
EKVX	0.399
LC-2-ad	0.458
NCI-H1563	0.599
NCI-H1944	0.256
NCI-H1975	0.498
RERF-LC-KJ	0.306
ABC-1	0.285
NCI-H358	0.179
NCI-H650	0.214
PC-3 [JPC-3]	0.59

Same assay, conditions: first compound 0.4 µM

Cell Line	relative viability
NCI-H647	0.484
CAL-12T	0.292
NCI-H1651	0.423
EPLC-272H	0.24
NCI-H2228	0.227
NCI-H1792	0.199
NCI-H1355	0.21
NCI-H3122	0.275
NCI-H1437	0.208
NCI-H1755	0.589
NCI-H2023	0.105
HCC-15	0.305
PC-14	0.563
EKVX	0.391
LC-2-ad	0.405
NCI-H1563	0.609
NCI-H1944	0.225
NCI-H1975	0.423
RERF-LC-KJ	0.334
ABC-1	0.225
NCI-H358	0.15
NCI-H650	0.306
PC-3 [JPC-3]	0.485

Same assay, conditions: first compound 1.265 µM

Cell Line	relative viability
NCI-H647	0.734
CAL-12T	0.275
NCI-H1651	0.501
EPLC-272H	0.189
NCI-H2228	0.229
NCI-H1792	0.212
NCI-H1355	0.251
NCI-H3122	0.412
NCI-H1437	0.205
NCI-H1755	0.484
NCI-H2023	0.116
HCC-15	0.365
PC-14	0.279
EKVX	0.373
LC-2-ad	0.392
NCI-H1563	0.631
NCI-H1944	0.235
NCI-H1975	0.527
RERF-LC-KJ	0.346
ABC-1	0.298
NCI-H358	0.138
NCI-H650	0.289
PC-3 [JPC-3]	0.621

Source: the supplement of paper PMC10307832
